Where a SMILES comes first, the peptide text is derived from it.
Legend:
[1] = tested on: EA.hy926 cells; experiment: MTT cell viability; format: cell-based; details: 12 or 24 h; for viability of EA.hy926 cells: concentration lower than 200 μg/mL
Experimental: The cells were cultured in DMEM with 100 units/mL streptomycin–penicillin plus 2% FBS under an atmosphere of 5% CO2, 37 °C, and 100% humidity. The cells were seeded in 96-well plates at a density of 1 × 10^5 cells/well, and then treated with different concentrations of SLPQ (0, 12.5, 25, 50, 100, 200, 400, 800 μg/mL) or PYVRYL (0, 25, 50, 100, 200, 400, 800 μg/mL) for 12 or 24 h. After that, 0.05 mg/mL of MTT was added to each well and the plate was incubated for four hours at 37 °C. Finally, the culture media were replaced with 150 μL DMSO, and the OD value was detected at a wavelength of 570 nm (Infinity F200 microplate reader, Mainz, Germany).

[2] = tested on: eNOS; details: goat milk-derived ACE-inhibitory peptide; ref [39]; cited from earlier work
Experimental: Consequently, peptides SLPQ or PYVRYL were supplemented at concentrations ranging from 0 to 200 μg/mL in the following study. The bradykinin–NO signaling pathway can be activated by […] [44], and NO plays an important role in regulating blood pressure and the tension of vascular smooth muscle. Therefore, the content of NO in the ...

Compound | toxic effects on EA.hy926 cells ([1]; 400 μg/mL) | toxic effects on EA.hy926 cells ([1]; 800 μg/mL) | viability of EA.hy926 cells [1] | NO production and eNOS expression [2]
CC(C)C[C@H](NC(=O)[C@H](Cc1ccc(O)cc1)NC(=O)[C@H](CCCNC(=N)N)NC(=O)[C@@H](NC(=O)[C@H](Cc1ccc(O)cc1)NC(=O)[C@@H]1CCCN1)C(C)C)C(=O)O [PYVRYL] (H-PYVRYL-OH) | obvious toxic effects | obvious toxic effects | not affected | –
SQPK | – | – | – | elevate NO production and eNOS expression
CC(C)C[C@H](NC(=O)[C@@H](N)CO)C(=O)N1CCC[C@H]1C(=O)N[C@@H](CCC(N)=O)C(=O)O [SLPQ] (H-SLPQ-OH) | obvious toxic effects | obvious toxic effects | not affected | –

Source: article PMC11545510, “Goat Milk Protein-Derived ACE Inhibitory Peptide SLPQ Exerts Hypertension Alleviation Effects Partially by Regulating the Inflammatory Stress of Endothelial Cells” (Foods, 2024)
